Here are results for eight compounds from ChEMBL document CHEMBL1129446, “Hydroxamic acid-based bisubstrate analog inhibitors of Ras farnesyl protein transferase” (J Med Chem, 1996).

SMILES strings stand for the structures.

For the assay, the target named is Protein farnesyltransferase (Sus scrofa). Nature of the assay: In vitro activity against Protein farnesyltransferase. The conditions noted are these: read-out: I50.
Regarding `CC(C)C[C@H](NC(=O)[C@@H](NC(=O)[C@@H](N)CC(=O)N(C)O)C(C)C)C(=O)N[C@@H](CO)C(=O)O`, the IC50 was more than 360 µM.
Then `CSCC[C@H](NC(=O)[C@@H](NC(=O)[C@@H](NC(=O)CC(=O)N(O)C/C=C(\C)CC/C=C(\C)CCC=C(C)C)C(C)C)C(C)C)C(=O)O`, with 0.33 µM; and `CSCC[C@H](NC(=O)[C@@H](NC(=O)[C@@H](NC(=O)CC(=O)N(O)CC/C=C(\C)CC/C=C(\C)CCC=C(C)C)C(C)C)C(C)C)C(=O)O`, with 5.6 µM; and `CC(C)C[C@H](NC(=O)[C@@H](NC(=O)[C@@H](N)CC(=O)N(C)OCc1ccccc1)C(C)C)C(=O)N[C@@H](CO)C(=O)O`, with more than 360 µM.
With `CC(C)C[C@H](NC(=O)[C@@H](NC(=O)[C@H](CC(=O)N(C)O)NC(=O)OC(C)(C)C)C(C)C)C(=O)N[C@@H](CO)C(=O)O`, the IC50 was more than 360 µM.
Then `CC(C)C[C@H](NC(=O)[C@@H](NC(=O)[C@H](CC(=O)N(C)OCc1ccccc1)NC(=O)OC(C)(C)C)C(C)C)C(=O)N[C@@H](CO)C(=O)O`, with more than 360 µM; and `CSCC[C@@H](NC(=O)[C@@H](NC(=O)[C@@H](NC(=O)CC(=O)N(O)C/C=C(\C)CC/C=C(\C)CCC=C(C)C)C(C)C)C(C)C)C(=O)O`, with 30.5 µM.
Then `CC(C)=CCC/C(C)=C/CC/C(C)=C/CN(O)C(=O)CCC(=O)N[C@H](C(=O)N[C@@H](CC(C)C)C(=O)N[C@@H](CO)C(=O)O)C(C)C`, with 42.5 µM.
